Legend:
Cbl-b = Cbl-b (Homo sapiens (Human), UniProt Q13191); test: Cbl-b LCK Ub TR-FRET assay (Cbl-b Lck HTRF); assay type: biochemical; conditions: for IC50: Cbl-b LCK Ub TR-FRET; for (fold-selectivity) Cbl-b and C-Cbl Selectivity / fold-selectivity (Cbl-b over C-cbl): ratio C-cbl Lck HTRF IC50 / Cbl-b Lck HTRF IC50
Summary of the method: (§1)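 After the ubiquitination reaction, detection mixture was added and plates incubated 20 min at room temperature before reading. IC50 values were calculated with wells lacking LCK as the low control and DMSO as the high control.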

c-Cbl = c-Cbl (Homo sapiens (Human), UniProt P22681); test: C-Cbl LCK Ub TR-FRET assay (C-cbl Lck HTRF); assay type: biochemical
Summary of the method: as §1

[1] = target: Human Cbl-b (residues 40-426) (Homo sapiens (Human), UniProt Q13191); test: Cbl-b SPR assay; assay type: binding; conditions: for Fold of selectivity: C-cbl SPR Kd vs Cbl-b SPR Kd; for Kd: SPR, 20° C.
Summary of the method: (§2)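 First, protein is captured to 1300-1500 RU. Then compound runs in single cycle kinetics, a blank plus 5 two-fold concentrations up to 500 nM (120 s contact, 50 μl/min, 450 s dissociation). Chaser injections (20 s, 30 μl/min) track occupancy, giving kd, which is fixed when fitting the titration.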

c-Cbl (residues 47-435) = c-Cbl (residues 47-435) (Homo sapiens (Human), UniProt P22681); test: c-Cbl SPR assay; assay type: binding; conditions: 20° C.
Summary of the method: as §2

c-Cbl (residues 47-435), sequence (P22681 47-435): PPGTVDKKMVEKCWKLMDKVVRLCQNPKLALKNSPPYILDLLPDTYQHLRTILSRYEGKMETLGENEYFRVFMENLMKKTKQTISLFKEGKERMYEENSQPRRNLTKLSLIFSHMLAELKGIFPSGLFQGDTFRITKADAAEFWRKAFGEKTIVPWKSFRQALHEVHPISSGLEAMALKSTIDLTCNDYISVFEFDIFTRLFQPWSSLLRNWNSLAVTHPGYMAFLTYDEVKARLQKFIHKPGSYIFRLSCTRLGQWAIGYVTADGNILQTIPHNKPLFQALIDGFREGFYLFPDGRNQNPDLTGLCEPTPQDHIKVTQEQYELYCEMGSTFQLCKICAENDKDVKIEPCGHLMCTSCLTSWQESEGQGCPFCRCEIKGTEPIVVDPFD
c-Cbl, sequence (P22681 47-435): as above
Cbl-b, sequence (Q13191 40-426): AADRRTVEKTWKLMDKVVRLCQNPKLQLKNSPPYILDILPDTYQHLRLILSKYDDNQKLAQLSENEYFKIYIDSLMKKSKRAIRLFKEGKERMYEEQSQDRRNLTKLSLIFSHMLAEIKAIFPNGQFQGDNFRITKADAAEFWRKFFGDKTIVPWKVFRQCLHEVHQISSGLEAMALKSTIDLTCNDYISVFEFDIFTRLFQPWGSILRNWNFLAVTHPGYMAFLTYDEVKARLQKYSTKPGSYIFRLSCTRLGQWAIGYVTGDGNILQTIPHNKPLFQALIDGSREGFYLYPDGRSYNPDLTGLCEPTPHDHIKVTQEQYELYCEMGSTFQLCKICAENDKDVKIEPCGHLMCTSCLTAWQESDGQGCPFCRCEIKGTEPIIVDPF
Human Cbl-b (residues 40-426), sequence (Q13191 40-426): as above

SMILES	IC50 (Cbl-b; Example 121) [nM]	(fold-selectivity) Cbl-b and C-Cbl Selectivity (Cbl-b) [x]	IC50 (c-Cbl) [nM]	Fold of selectivity [1] [×]	Kd [1] [nM]	Kd (c-Cbl (residues 47-435)) [nM]	IC50 (Cbl-b) [nM]	fold-selectivity (Cbl-b over C-cbl) (Cbl-b) [x]
Cn1cnnc1[C@@H](c1cccc(N2Cc3c(cc([C@@H](NC4(C)CCC4)C4CC4)cc3C(F)(F)F)C2=O)c1)C1COC1 (single isomer, unassigned) [Compound 430]	19	4.7	91	14	5.9	74		
Cn1cnnc1C(c1cccc(N2Cc3c(cc(CNC4(C)CCC4)cc3C(F)(F)F)C2=O)c1)[C@H]1C[C@H](CC#N)C1 (single isomer, unassigned) [Compound 364]			3.3	4.4	0.55	2.4	2.5	1.3
Cn1cnnc1[C@@H](c1cccc(N2Cc3c(cc(CNC4(C)CCC4)cc3C(F)(F)F)C2=O)c1)[C@H]1C[C@H](OC(F)(F)F)C1 (single isomer, unassigned) [Compound 395]			160	7.1	130	920	75	2.1
Cn1cnnc1C1(c2cccc(N3Cc4c(cc([C@H](O)CO)cc4C(F)(F)F)C3=O)c2)CCC1 (single isomer, unassigned) [Compound 302]			880	4.0	410	1600	410	2.1
C[C@H](NC1(C)CCC1)c1cc2c(c(C(F)(F)F)c1)CN(c1cccc(C3(c4nncn4C)CC(F)(F)C3)c1)C2=O (single isomer, unassigned) [Compound 173]			45	6.3	7.9	49	20	2.2
CO[C@H]1C[C@](c2cccc(N3Cc4c(cc(CNCC(C)C)cc4C(F)(F)F)C3=O)c2)(c2nncn2C)C1 [Compound 421, 6-((isobutylamino)methyl)-2-(3-((1r,3r)-3-methoxy-1-(4-methyl-4H-1,2,4-triazol-3-yl)cyclobutyl)phenyl)-4-(trifluoromethyl)isoindolin-1-one]	6.5	2.6	17	14	1.7	24		
Cn1cnnc1[C@]1(c2cccc(N3Cc4c(cc(CNC5(C)CCC5)cc4C(F)(F)F)C3=O)c2)C[C@@H](CO)C1.O=CO [Compound 100, 2-(3-((1r,3r)-3-(hydroxymethyl)-1-(4-methyl-4H-1,2,4-triazol-3-yl)cyclobutyl)phenyl)-6-(((1-methylcyclobutyl)amino)methyl)-4-(trifluoromethyl)isoindolin-1-one formate]			86	12	5.8	72	25	3.5
Cn1cnnc1C1(c2cc(NCCC#N)nc(N3Cc4c(cc(CNC5(C)CCC5)cc4C(F)(F)F)C3=O)c2)CC2(COC2)C1 [Compound 187, 3-((4-(6-(4-methyl-4H-1,2,4-triazol-3-yl)-2-oxaspiro[3.3]heptan-6-yl)-6-(6-(((1-methylcyclobutyl)amino)methyl)-1-oxo-4-(trifluoromethyl)isoindolin-2-yl)pyridin-2-yl)amino)propanenitrile]			22	15	0.95	15	11	1.0
CC(C)[C@H]1CN(C)CCN1Cc1cc(Cl)c2c(c1)C(=O)N(c1cccc(C3(c4nncn4C)CC4(COC4)C3)c1)C2 (single isomer, unassigned) [Compound 204]			29	4.1	3.7	15	13	2.3
Cn1cnnc1[C@]1(c2cccc(N3Cc4c(cc(CNC5(C)CCC5)cc4C(F)F)C3=O)c2)C[C@H](Cl)C1 [Compound 446, 2-(3-((1s,3s)-3-chloro-1-(4-methyl-4H-1,2,4-triazol-3-yl)cyclobutyl)phenyl)-4-(difluoromethyl)-6-(((1-methylcyclobutyl)amino)methyl)isoindolin-1-one]	6.8	1.7	11	5.1	1.3	6.6		
Cn1cnnc1[C@H](C[C@H]1COCCO1)c1cccc(N2Cc3c(cc(CNC4(C)CCC4)cc3C(F)(F)F)C2=O)c1 [Compound 294, 2-(3-((R)-2-((S)-1,4-dioxan-2-yl)-1-(4-methyl-4H-1,2,4-triazol-3-yl)ethyl)phenyl)-6-(((1-methylcyclobutyl)amino)methyl)-4-(trifluoromethyl)isoindolin-1-one]			660	1.3	530	720	400	1.6
CC(C)[C@H]1CN(C)CCN1Cc1cc2c(c(C(F)F)c1)CN(c1cccc(C3(c4nncn4C)CC4(COC4)C3)c1)C2=O.O=CO.O=CO [Compound 198, (S)-4-(difluoromethyl)-6-((2-isopropyl-4-methylpiperazin-1-yl)methyl)-2-(3-(6-(4-methyl-4H-1,2,4-triazol-3-yl)-2-oxaspiro[3.3]heptan-6-yl)phenyl)isoindolin-1-one formate]			200	5.1	29	120	46	4.4

The remaining molecules from weak to strong by IC50 (c-Cbl), led by results:

IC50 (Cbl-b; Example 121) [nM]	(fold-selectivity) Cbl-b and C-Cbl Selectivity (Cbl-b) [x]	IC50 (c-Cbl) [nM]	Fold of selectivity [1] [×]	Kd [1] [nM]	Kd (c-Cbl (residues 47-435)) [nM]	IC50 (Cbl-b) [nM]	fold-selectivity (Cbl-b over C-cbl) (Cbl-b) [x]	SMILES
		2500	3.4	890	2800	580	4.3	CC(=O)N1CC([C@@H](c2cccc(N3Cc4c(cc(CNC5(C)CCC5)cc4C(F)(F)F)C3=O)c2)c2nncn2C)C1 (single isomer, unassigned) [Compound 402]
		1800	6.8	180	1400	360	4.8	Cn1cnnc1[C@]1(c2cccc(N3Cc4c(cc(CNC5(C)CCC5)cc4C(F)(F)F)C3=O)c2)C[C@@](O)(C(F)(F)F)C1 [Compound 120, 2-(3-((1s,3s)-3-hydroxy-1-(4-methyl-4H-1,2,4-triazol-3-yl)-3-(trifluoromethyl)cyclobutyl)phenyl)-6-(((1-methylcyclobutyl)amino)methyl)-4-(trifluoromethyl)isoindolin-1-one]
		290	2.3	75	170	190	1.5	CO[C@H]1C[C@](c2cc(C)cc(N3Cc4c(cc(CNC5(C)CCC5)cc4C(F)(F)F)C3=O)c2)(c2nncn2C)C1 [Compound 230, 2-(3-((1r,3r)-3-methoxy-1-(4-methyl-4H-1,2,4-triazol-3-yl)cyclobutyl)-5-methylphenyl)-6-(((1-methylcyclobutyl)amino)methyl)-4-(trifluoromethyl)isoindolin-1-one]
		270	12	13	150	38	7.1	Cn1cnnc1[C@H](c1cccc(N2Cc3c(cc(CNC4(C)CCC4)cc3C(F)(F)F)C2=O)c1)C1CC(OCC(F)F)C1 (single isomer, unassigned) [Compound 262]
16	5.0	78	19	3.7	79			CO[C@H]1C[C@](c2cccc(N3Cc4c(cc(CNCCC5CCC5(F)F)cc4C(F)(F)F)C3=O)c2)(c2nncn2C)C1 (stereo partly drawn) [Compound 499, 6-(((2-(2,2-difluorocyclobutyl)ethyl)amino)methyl)-2-(3-((1r,3r)-3-methoxy-1-(4-methyl-4H-1,2,4-triazol-3-yl)cyclobutyl)phenyl)-4-(trifluoromethyl)isoindolin-1-one]
		38	21	2.9	59	6	6.3	Cn1cnnc1C(c1cccc(N2Cc3c(cc(CNC4(C)CCC4)cc3C(F)(F)F)C2=O)c1)[C@H]1C[C@@H](CC#N)C1 (single isomer, unassigned) [Compound 362]
5.3	3.7	20	15	1.9	30			CO[C@H]1C[C@](c2cccc(N3Cc4c(cc(CNCC5CC5(F)F)cc4C(F)(F)F)C3=O)c2)(c2nncn2C)C1 (stereo partly drawn) [Compound 482, 6-((((2,2-difluorocyclopropyl)methyl)amino)methyl)-2-(3-((1r,3r)-3-methoxy-1-(4-methyl-4H-1,2,4-triazol-3-yl)cyclobutyl)phenyl)-4-(trifluoromethyl)isoindolin-1-one]
		16	6.5	1.7	11	10	1.6	CCNc1cc(N2Cc3c(cc(CNC4(C)CCC4)cc3C(F)(F)F)C2=O)cc([C@]2(c3nncn3C)C[C@@H](OC)C2)c1 [Compound 227, 2-(3-(ethylamino)-5-((1s,3s)-3-methoxy-1-(4-methyl-4H-1,2,4-triazol-3-yl)cyclobutyl)phenyl)-6-(((1-methylcyclobutyl)amino)methyl)-4-(trifluoromethyl)isoindolin-1-one]
